This note sets out measurements from ChEMBL document CHEMBL2439976, “Discovery of NMS-E973 as novel, selective and potent inhibitor of heat shock protein 90 (Hsp90)” (Bioorg Med Chem, 2013).

Data set [1] is described as follows: in vivo. The settings on record: Balb nu/nu, mouse, iv, 10 mg/kg.
Data set [2] in a line: in vivo. The settings on record: Balb nu/nu, mouse, iv, 10 mg/kg. The source holds these as a separate data set.
Data set [3] is described as follows: in vivo. The settings on record: Balb nu/nu, mouse, iv, 10 mg/kg. The source holds these as a separate data set.
Data set [4] can be described thus: in vivo. The conditions noted are these: Balb nu/nu, mouse, plasma, iv, 10 mg/kg.

In the case of `CN(C)c1ccc(Oc2cc(O)cc(O)c2-c2cc(C(=O)NC3CCN(C4CCC5(CC4)OCCO5)CC3)no2)cc1`, in “in vivo [1]”, the half-life was 5.46 h. In “in vivo [2]”, this compound came in with a Vd of 4.94 L/kg. Also, the clearance in “in vivo [3]” was 1.76 L/h/kg. Also, the AUC(0-inf) in the data set “in vivo [4]” worked out at 7.6 µM·h.

As to `CN1CCC(NC(=O)c2cc(-c3c(O)cc(O)cc3Oc3ccc(N(C)C)cc3)on2)CC1`, the half-life in “in vivo [1]” is 5.55 h. Further, the volume of distribution (Vd) in the data set “in vivo [2]” was found to be 19.7 L/kg. The compound also displayed a clearance in “in vivo [3]” of 3.74 L/h/kg. The AUC(0-inf) in the data set “in vivo [4]” came to 5.92 µM·h.

In the case of `CC(C)Nc1ccc(Oc2cc(O)cc(O)c2-c2cc(C(=O)NC3CCN(C)CC3)no2)cc1`, the half-life in the data set “in vivo [1]” is 5.44 h. In addition, the volume of distribution (Vd) in the data set “in vivo [2]” turned out to be 18.4 L/kg. This compound gave a clearance in the data set “in vivo [3]” of 3.89 L/h/kg. For the same compound, the area under the curve AUC(0-inf) in “in vivo [4]” came to 4.8 µM·h.

For orientation: half-life means the time in which the quantity being followed falls by half. Low values mean fast loss, high ones slow loss. By Vd is commonly meant a proportionality between amount in the body and measured concentration, not a real space. As usually defined, the clearance is the rate of elimination divided by the concentration. A low value points to inefficient removal. In general, AUC(0-inf) refers to total exposure, with the tail of the curve extrapolated.
